Reference: the NIST ThermoML archive (doi:10.1021/je8007759)
± gives the expanded uncertainty stated by the source.

Assay: xn = mol fraction of the nth substance listed

CC1CCC(=O)O1 (stereo not given) [γ-valerolactone] + O=C=O
Fluid (supercritical or subcritical phases), Pycnometric method
Conditions | mass density [kg/m3]
313.2 K, 10860 kPa, x1 = 0.1 | 942 ± 5
313.2 K, 10880 kPa, x1 = 0.025 | 833 ± 5
313.2 K, 11030 kPa, x1 = 0.01 | 778 ± 6
313.2 K, 11160 kPa, x1 = 0.025 | 840 ± 6
313.2 K, 11200 kPa, x1 = 0.05 | 872 ± 5
313.2 K, 11230 kPa, x1 = 0.15 | 981 ± 4
313.2 K, 11440 kPa, x1 = 0.01 | 789 ± 6
313.2 K, 11450 kPa, x1 = 0.025 | 846 ± 4
313.2 K, 11640 kPa, x1 = 0.1 | 949 ± 4
313.2 K, 11660 kPa, x1 = 0.05 | 878 ± 5
313.2 K, 11770 kPa, x1 = 0.025 | 852 ± 5
313.2 K, 11850 kPa, x1 = 0.15 | 985 ± 4
313.2 K, 11950 kPa, x1 = 0.01 | 802 ± 6
313.2 K, 12460 kPa, x1 = 0.15 | 987 ± 4
313.2 K, 12490 kPa, x1 = 0.1 | 956 ± 4
313.2 K, 13220 kPa, x1 = 0.15 | 992 ± 4
313.2 K, 13510 kPa, x1 = 0.1 | 964 ± 4
313.2 K, 13960 kPa, x1 = 0.15 | 995 ± 4
313.2 K, 14650 kPa, x1 = 0.15 | 999 ± 4
313.2 K, 15420 kPa, x1 = 0.15 | 1002 ± 4
313.2 K, 16160 kPa, x1 = 0.15 | 1006 ± 4
313.2 K, 16920 kPa, x1 = 0.15 | 1009 ± 4
316.2 K, 8740 kPa, x1 = 0.025 | 683 ± 17
316.2 K, 8760 kPa, x1 = 0.025 | 687 ± 16
316.2 K, 8790 kPa, x1 = 0.025 | 692 ± 16
316.2 K, 8810 kPa, x1 = 0.025 | 696 ± 14
316.2 K, 8830 kPa, x1 = 0.025 | 700 ± 12
316.2 K, 8880 kPa, x1 = 0.025 | 704 ± 15
316.2 K, 8910 kPa, x1 = 0.025 | 709 ± 24
316.2 K, 8960 kPa, x1 = 0.025 | 713 ± 12
316.2 K, 8990 kPa, x1 = 0.025 | 718 ± 9
316.2 K, 9060 kPa, x1 = 0.025 | 723 ± 9
316.2 K, 9110 kPa, x1 = 0.025 | 728 ± 9
316.2 K, 9180 kPa, x1 = 0.025 | 732 ± 10
316.2 K, 9250 kPa, x1 = 0.025 | 737 ± 9
316.2 K, 9320 kPa, x1 = 0.025 | 742 ± 6
316.2 K, 9410 kPa, x1 = 0.025 | 747 ± 9
316.2 K, 9500 kPa, x1 = 0.025 | 752 ± 9
316.2 K, 9590 kPa, x1 = 0.025 | 758 ± 8
316.2 K, 9700 kPa, x1 = 0.025 | 762 ± 8
316.2 K, 9800 kPa, x1 = 0.025 | 768 ± 7
316.2 K, 9930 kPa, x1 = 0.025 | 772 ± 6
316.2 K, 10060 kPa, x1 = 0.025 | 778 ± 7
316.2 K, 10210 kPa, x1 = 0.025 | 783 ± 6
316.2 K, 10360 kPa, x1 = 0.025 | 788 ± 6
316.2 K, 10520 kPa, x1 = 0.025 | 794 ± 6
316.2 K, 10720 kPa, x1 = 0.025 | 800 ± 6
316.2 K, 10910 kPa, x1 = 0.025 | 806 ± 6
316.2 K, 11110 kPa, x1 = 0.025 | 812 ± 6
316.2 K, 11350 kPa, x1 = 0.025 | 818 ± 5
316.2 K, 11610 kPa, x1 = 0.025 | 824 ± 5
316.2 K, 11880 kPa, x1 = 0.025 | 830 ± 5
316.2 K, 12200 kPa, x1 = 0.025 | 836 ± 5
316.2 K, 12480 kPa, x1 = 0.025 | 842 ± 5
318 K, 9060 kPa, x1 = 0.01 | 519 ± 22
318 K, 9080 kPa, x1 = 0.01 | 522 ± 22
318 K, 9090 kPa, x1 = 0.01 | 525 ± 21
318 K, 9110 kPa, x1 = 0.01 | 529 ± 21
318 K, 9120 kPa, x1 = 0.01 | 532 ± 21
318 K, 9140 kPa, x1 = 0.01 | 535 ± 22
318 K, 9180 kPa, x1 = 0.01 | 542 ± 22
318 K, 9180 kPa, x1 = 0.15 | 949 ± 4
318 K, 9190 kPa, x1 = 0.025 | 680 ± 38
318 K, 9220 kPa, x1 = 0.01 | 549 ± 10
318 K, 9230 kPa, x1 = 0.025 | 683 ± 47
318 K, 9250 kPa, x1 = 0.01 | 556 ± 20
318 K, 9260 kPa, x1 = 0.025 | 688 ± 42
318 K, 9270 kPa, x1 = 0.05 | 776 ± 19
318 K, 9290 kPa, x1 = 0.01 | 563 ± 20
318 K, 9290 kPa, x1 = 0.025 | 692 ± 37
318 K, 9330 kPa, x1 = 0.01 | 570 ± 19
318 K, 9330 kPa, x1 = 0.05 | 782 ± 17
318 K, 9340 kPa, x1 = 0.025 | 696 ± 21
318 K, 9380 kPa, x1 = 0.01 | 578 ± 18
318 K, 9380 kPa, x1 = 0.025 | 700 ± 20
318 K, 9410 kPa, x1 = 0.05 | 787 ± 9
318 K, 9410 kPa, x1 = 0.1 | 894 ± 10
318 K, 9430 kPa, x1 = 0.01 | 586 ± 18
318 K, 9430 kPa, x1 = 0.025 | 705 ± 17
318 K, 9480 kPa, x1 = 0.01 | 593 ± 17
318 K, 9480 kPa, x1 = 0.025 | 709 ± 16
318 K, 9480 kPa, x1 = 0.05 | 792 ± 8
318 K, 9490 kPa, x1 = 0.15 | 952 ± 4
318 K, 9530 kPa, x1 = 0.025 | 714 ± 17
318 K, 9540 kPa, x1 = 0.01 | 602 ± 10
318 K, 9540 kPa, x1 = 0.1 | 896 ± 7
318 K, 9590 kPa, x1 = 0.025 | 718 ± 16
318 K, 9600 kPa, x1 = 0.05 | 797 ± 8
318 K, 9610 kPa, x1 = 0.01 | 611 ± 14
318 K, 9660 kPa, x1 = 0.025 | 723 ± 16
318 K, 9690 kPa, x1 = 0.01 | 619 ± 13
318 K, 9730 kPa, x1 = 0.025 | 728 ± 12
318 K, 9730 kPa, x1 = 0.1 | 900 ± 5
318 K, 9760 kPa, x1 = 0.05 | 803 ± 7
318 K, 9800 kPa, x1 = 0.01 | 631 ± 11
318 K, 9800 kPa, x1 = 0.025 | 732 ± 12
318 K, 9860 kPa, x1 = 0.025 | 737 ± 12
318 K, 9880 kPa, x1 = 0.1 | 903 ± 5
318 K, 9930 kPa, x1 = 0.01 | 642 ± 13
318 K, 9940 kPa, x1 = 0.05 | 809 ± 6
318 K, 9940 kPa, x1 = 0.15 | 956 ± 4
318 K, 9950 kPa, x1 = 0.025 | 742 ± 11
318 K, 10020 kPa, x1 = 0.01 | 652 ± 10
318 K, 10050 kPa, x1 = 0.025 | 747 ± 8
318 K, 10080 kPa, x1 = 0.01 | 657 ± 9
318 K, 10130 kPa, x1 = 0.05 | 814 ± 5
318 K, 10140 kPa, x1 = 0.1 | 906 ± 5
318 K, 10150 kPa, x1 = 0.025 | 752 ± 10
318 K, 10260 kPa, x1 = 0.025 | 757 ± 15
318 K, 10320 kPa, x1 = 0.15 | 959 ± 4
318 K, 10340 kPa, x1 = 0.05 | 820 ± 5
318 K, 10340 kPa, x1 = 0.1 | 909 ± 5
318 K, 10380 kPa, x1 = 0.025 | 762 ± 17
318 K, 10500 kPa, x1 = 0.025 | 768 ± 8
318 K, 10600 kPa, x1 = 0.05 | 825 ± 5
318 K, 10610 kPa, x1 = 0.1 | 912 ± 6
318 K, 10640 kPa, x1 = 0.025 | 773 ± 6
318 K, 10750 kPa, x1 = 0.01 | 695 ± 8
318 K, 10800 kPa, x1 = 0.025 | 779 ± 6
318 K, 10850 kPa, x1 = 0.1 | 916 ± 4
318 K, 10870 kPa, x1 = 0.05 | 832 ± 6
318 K, 10920 kPa, x1 = 0.15 | 962 ± 4
318 K, 10960 kPa, x1 = 0.025 | 784 ± 5
318 K, 11040 kPa, x1 = 0.01 | 711 ± 8
318 K, 11120 kPa, x1 = 0.025 | 789 ± 7
318 K, 11140 kPa, x1 = 0.1 | 919 ± 5
318 K, 11160 kPa, x1 = 0.05 | 838 ± 5
318 K, 11320 kPa, x1 = 0.025 | 795 ± 10
318 K, 11440 kPa, x1 = 0.1 | 922 ± 4
318 K, 11470 kPa, x1 = 0.05 | 843 ± 5
318 K, 11480 kPa, x1 = 0.15 | 966 ± 4
318 K, 11520 kPa, x1 = 0.025 | 801 ± 6
318 K, 11740 kPa, x1 = 0.025 | 806 ± 6
318 K, 11750 kPa, x1 = 0.1 | 925 ± 4
318 K, 11860 kPa, x1 = 0.05 | 850 ± 5
318 K, 11950 kPa, x1 = 0.025 | 813 ± 5
318 K, 11960 kPa, x1 = 0.15 | 969 ± 4
318 K, 12090 kPa, x1 = 0.1 | 928 ± 4
318 K, 12210 kPa, x1 = 0.025 | 818 ± 5
318 K, 12240 kPa, x1 = 0.05 | 857 ± 5
318 K, 12490 kPa, x1 = 0.025 | 824 ± 5
318 K, 12600 kPa, x1 = 0.15 | 972 ± 4
318 K, 12670 kPa, x1 = 0.05 | 862 ± 5
318 K, 12770 kPa, x1 = 0.025 | 830 ± 5
318 K, 12780 kPa, x1 = 0.1 | 935 ± 4
318 K, 13080 kPa, x1 = 0.025 | 836 ± 5
318 K, 13090 kPa, x1 = 0.15 | 975 ± 4
318 K, 13150 kPa, x1 = 0.05 | 869 ± 5
318 K, 13490 kPa, x1 = 0.025 | 843 ± 5
318 K, 13580 kPa, x1 = 0.1 | 943 ± 4
318 K, 13710 kPa, x1 = 0.15 | 978 ± 4
318 K, 13740 kPa, x1 = 0.025 | 849 ± 5
318 K, 13850 kPa, x1 = 0.05 | 878 ± 5
318 K, 13990 kPa, x1 = 0.1 | 945 ± 5
318 K, 14310 kPa, x1 = 0.15 | 982 ± 4
318 K, 14380 kPa, x1 = 0.1 | 949 ± 5
318 K, 15060 kPa, x1 = 0.15 | 986 ± 4
318 K, 15680 kPa, x1 = 0.15 | 989 ± 4
318 K, 16350 kPa, x1 = 0.15 | 992 ± 4
318 K, 16950 kPa, x1 = 0.15 | 995 ± 4
322.9 K, 9850 kPa, x1 = 0.01 | 518 ± 17

mass density [kg/m3], high pressure variable cell
Conditions | x1 = 0.01 | x1 = 0.025 | x1 = 0.05 | x1 = 0.1 | x1 = 0.15
313.2 K, Liquid | 539 ± 6 | 723 ± 6 | 803 ± 4 | 910 ± 4 | 961 ± 4
318 K, Gas | 516 ± 4 | 677 ± 4 | – | – | –
318 K, Liquid | – | – | – | 891 ± 4 | 948 ± 4
